Experimental data taken from patent publication US7262212B2, “2,3-dihydro-6-nitroimidazo[2,1-b]oxazoles” (Otsuka Pharmaceutical Co., Ltd., priority 2002, dated 2007).

Row | melting point | SMILES
1 | 231 to 233 °C | O=C(Nc1ccc(OC(F)(F)F)cc1)N1CCC2(CC1)Cn1cc([N+](=O)[O-])nc1O2
2 | 86.4 to 89.2 °C | CN(CCOc1ccc(OC(F)(F)F)cc1)CC1(C)Cn2cc([N+](=O)[O-])nc2O1 (stereo not shown)
3 | 92 to 95 °C | CN(CCCOc1ccc(OC(F)(F)F)cc1)C[C@@]1(C)Cn2cc([N+](=O)[O-])nc2O1
4 | 182.6 to 182.9 °C | O=C(NCC1Cn2cc([N+](=O)[O-])nc2O1)OCc1ccc(Cl)cc1 (stereo not shown)
5 | 141.2 to 144 °C | C[C@]1(CN2CCC(NC(=O)OCc3ccc(C(F)(F)F)cc3)CC2)Cn2cc([N+](=O)[O-])nc2O1
6 | 148.6 to 152.9 °C | C[C@]1(CN2CCC(NCc3ccc(C(F)(F)F)cc3)CC2)Cn2cc([N+](=O)[O-])nc2O1
7 | 107 to 109 °C | C[C@]1(CN2CCC([S+]([O-])c3ccc(OC(F)(F)F)cc3)CC2)Cn2cc([N+](=O)[O-])nc2O1 (stereo partly shown)
8 | 117 to 121 °C | C[S+]([O-])c1ccc(COC(=O)N2CCN(CC3(C)Cn4cc([N+](=O)[O-])nc4O3)CC2)cc1 (stereo not shown)
9 | 187.6 to 189.6 °C | CC1(CCN2CCN(c3nc4ccccc4o3)CC2)Cn2cc([N+](=O)[O-])nc2O1 (stereo not shown)
10 | 142 to 145 °C | C[C@]1(CN2CCN(C(=O)CSc3ccc(Cl)cc3)CC2)Cn2cc([N+](=O)[O-])nc2O1
11 | 135 to 137 °C | COc1ccc(C(=O)N2CCN(CC3(C)Cn4cc([N+](=O)[O-])nc4O3)CC2)cc1 (stereo not shown)
12 | 215 to 217 °C | CC1(CN2CCN(S(=O)(=O)Cc3ccc(Cl)cc3)CC2)Cn2cc([N+](=O)[O-])nc2O1 (stereo not shown)
13 | 192 to 193 °C | C[C@]1(CN2CCN(S(=O)(=O)CCc3ccc(Cl)cc3)CC2)Cn2cc([N+](=O)[O-])nc2O1
14 | 158 to 159 °C | C[C@]1(CN2CCN(C(=O)OCC=Cc3c(F)cc(F)cc3F)CC2)Cn2cc([N+](=O)[O-])nc2O1.O=C(O)/C=C\C(=O)O
15 | 98 to 101 °C | C[C@]1(CN2CCN(C(=O)NC3CCCCC3)CC2)Cn2cc([N+](=O)[O-])nc2O1
16 | 202.5 to 205.4 °C | C[C@]1(CN2CCN(c3cc(-c4ccccc4)nc(-c4ccccc4)n3)CC2)Cn2cc([N+](=O)[O-])nc2O1
17 | 189.2 to 190.9 °C | CC1(CN2CCN(N=Cc3ccc(OC(F)(F)F)cc3)CC2)Cn2cc([N+](=O)[O-])nc2O1 (stereo not shown)
18 | 164.6 to 166.5 °C | CC(=NN1CCN(C[C@@]2(C)Cn3cc([N+](=O)[O-])nc3O2)CC1)c1ccc(Cl)cc1
19 | 178.6 to 179.3 °C | C[C@]1(CN2CCN(N=C3CCCCC3)CC2)Cn2cc([N+](=O)[O-])nc2O1
20 | 168.1 to 169.3 °C | CCCCCCn1c(=O)n(CC2(C)Cn3cc([N+](=O)[O-])nc3O2)c2cc(Cl)ccc21 (stereo not shown)
21 | 189 to 190 °C | O=C(OCc1ccc(C(F)(F)F)cc1)N1CCC2(CC1)Cn1cc([N+](=O)[O-])nc1O2
22 | 260 to 263 °C (dec.) | O=C(CN1CCN(c2nc3ccccc3o2)CC1)N1CCC2(CC1)Cn1cc([N+](=O)[O-])nc1O2

Further lines, the compound ahead of its results:

Row | SMILES | melting point
23 | C[C@]1(COC(=O)N2CCc3cc(Cl)ccc32)Cn2cc([N+](=O)[O-])nc2O1 | 189 to 191 °C
24 | CC(C)(C)OC(=O)N1CCN(c2ccc(OCC3(C)Cn4cc([N+](=O)[O-])nc4O3)cc2)CC1 (stereo not shown) | 212 to 214.5 °C
25 | C[C@]1(COc2ccc(-n3cncn3)cc2)Cn2cc([N+](=O)[O-])nc2O1 | 236 to 238.7 °C
26 | CC(C)(C)OC(=O)N1CC=C(c2ccc(OC[C@@]3(C)Cn4cc([N+](=O)[O-])nc4O3)cc2)CC1 | 183 to 189 °C (dec.)
27 | C[C@]1(CN2CCC(N3CCN(C(=O)c4ccc(Cl)cc4)CC3)CC2)Cn2cc([N+](=O)[O-])nc2O1 | 174 to 175 °C
28 | C[C@]1(CN2CCN(C3CCN(Cc4ccc(Cl)cc4)CC3)CC2)Cn2cc([N+](=O)[O-])nc2O1 | 168 to 169 °C
29 | CC(C)(C)OC(=O)N1CCC(N2CCN(C[C@@]3(C)Cn4cc([N+](=O)[O-])nc4O3)CC2)CC1 | 181 to 182 °C
30 | C[C@]1(COc2ccc(C3CCN(C(=O)OCc4ccc(OC(F)(F)F)cc4)CC3)cc2)Cn2cc([N+](=O)[O-])nc2O1 | 202.5 to 204 °C
31 | CN(CCN1CCN(c2ccc(C(F)(F)F)cc2)CC1)C[C@@]1(C)Cn2cc([N+](=O)[O-])nc2O1 | 148 to 150.5 °C
32 | CCOC(=O)c1ccccc1NCC1(C)Cn2cc([N+](=O)[O-])nc2O1 (stereo not shown) | 162.5 to 163.2 °C
33 | CN(Cc1cccc(Cl)c1)C[C@@]1(C)Cn2cc([N+](=O)[O-])nc2O1 | 177.5 to 178.5 °C
34 | CNC(C1CCN(c2ccc(Cl)cc2)CC1)[C@]1(C)Cn2cc([N+](=O)[O-])nc2O1 (stereo partly shown) | 179.2 to 182.1 °C
35 | CC1(CN2CCC(Cc3ccc(C(F)(F)F)cc3)CC2)Cn2cc([N+](=O)[O-])nc2O1 (stereo not shown) | 125 to 126 °C
36 | CN(c1ccc(OC(F)(F)F)cc1)C1CCN(C[C@@]2(C)Cn3cc([N+](=O)[O-])nc3O2)CC1 | 133.2 to 134.4 °C
37 | CC(C)(C)OC(=O)N1CCN(CCC2(C)Cn3cc([N+](=O)[O-])nc3O2)CC1 (stereo not shown) | 190 to 191 °C (dec.)
38 | CC1(CN2CCN(C(=O)Cc3ccc(C(F)(F)F)cc3)CC2)Cn2cc([N+](=O)[O-])nc2O1 (stereo not shown) | 168 to 171.4 °C
39 | CC1(CN2CCN(C(=O)COc3ccc(Cl)c(Cl)c3)CC2)Cn2cc([N+](=O)[O-])nc2O1 (stereo not shown) | 209 to 211 °C

Row | SMILES | melting point
40 | CCCCCCCCOC(=O)N1CCN(CC2(C)Cn3cc([N+](=O)[O-])nc3O2)CC1 (stereo not shown) | 138 to 139.4 °C
41 | CC1(CN2CCN(C(=S)Nc3ccc(Cl)cc3)CC2)Cn2cc([N+](=O)[O-])nc2O1 (stereo not shown) | 204 to 206 °C (dec.)
42 | C[C@]1(CN2CCN(C(=O)OCC=Cc3ccc(OC(F)(F)F)cc3)CC2)Cn2cc([N+](=O)[O-])nc2O1 | 91 to 93 °C
43 | CC1(CN2CCN(C(=O)c3ccc(C(F)(F)F)cc3)CC2)Cn2cc([N+](=O)[O-])nc2O1 (stereo not shown) | 161 to 162 °C
44 | C[C@]1(CN2CCN(C(=O)CCCc3ccc(Cl)cc3)CC2)Cn2cc([N+](=O)[O-])nc2O1 | 146 to 147 °C
45 | CC1(CN2CCN(S(=O)(=O)c3ccc(Cl)cc3)CC2)Cn2cc([N+](=O)[O-])nc2O1 (stereo not shown) | 202 to 204 °C
46 | O=C(OCc1ccc(C(F)(F)F)cc1)N1CCN(C[C@H]2Cn3cc([N+](=O)[O-])nc3O2)CC1 | 125 to 125.5 °C
47 | CC1(CN2CCN(C(=O)Nc3ccc(C(F)(F)F)cc3)CC2)Cn2cc([N+](=O)[O-])nc2O1 (stereo not shown) | 216 to 217 °C
48 | CC1(CN2CCN(C(=O)N3CCC(c4ccc(Cl)cc4)CC3)CC2)Cn2cc([N+](=O)[O-])nc2O1 (stereo not shown) | 186 to 187 °C
49 | CC1(Cn2c(=O)oc3ccc(Cl)cc32)Cn2cc([N+](=O)[O-])nc2O1 (stereo not shown) | 207.6 to 207.9 °C
50 | Cn1c(=O)n(CC2(C)Cn3cc([N+](=O)[O-])nc3O2)c2cc(F)ccc21 (stereo not shown) | 244.2 to 249.8 °C (dec.)
51 | CCn1c(=O)n(CC2(C)Cn3cc([N+](=O)[O-])nc3O2)c2cc(Cl)ccc21 (stereo not shown) | 240.9 to 245.6 °C
52 | CC1(CCc2nnnn2-c2ccccc2)Cn2cc([N+](=O)[O-])nc2O1 (stereo not shown) | 158 to 159 °C
53 | CC1(CCN2CCN(c3ccccc3)C(=O)C2)Cn2cc([N+](=O)[O-])nc2O1 (stereo not shown) | 199 to 202 °C (dec.)
54 | CC1(CN2CCCN(Cc3ccc(-c4ccccc4)cc3)CC2)Cn2cc([N+](=O)[O-])nc2O1 (stereo not shown) | 138 to 142.2 °C
55 | CN(C(=O)OC[C@@]1(C)Cn2cc([N+](=O)[O-])nc2O1)c1ccc(Cl)cc1 | 131 to 133 °C
